These results are taken from US20200121684A1, “MODULATORS OF BTK PROTEOLYSIS AND METHODS OF USE” (Yale University, priority 2018, published 2020).

One data set deals with T1, HER3 (Homo sapiens, UniProt P21860).
T1 construct: endogenous in cells
The experiment in a line: HER3 (ERBB3) degradation, immunoblot. The format is cell-based. To be noted: Table 5.

For a further data set, the target named is T2, BTK (Homo sapiens, UniProt Q06187).
T2 construct: host or cells: NAMALWA
Kind of data set: BTK degradation in NAMALWA cells, immunoblot. It is filed as cell-based.

Data set [1] is described as follows: Pharmacokinetics after IV compound administration in mice. The format is in vivo. Particulars: for pharmacokinetic profile relative to COMPOUND 102: IV mice; for Clearance (Cl) / Half Life (t1/2) / Cmax / AUC(0-t): IV mice (1 mg/Kg); for Cmax: Tmax 0.033 h; for AUC(0-t): mouse, in vivo, read-out: Exposure (AUClast).

Where two headings read alike, the source gives them in different places.

T1 sequence (P21860 20-1342): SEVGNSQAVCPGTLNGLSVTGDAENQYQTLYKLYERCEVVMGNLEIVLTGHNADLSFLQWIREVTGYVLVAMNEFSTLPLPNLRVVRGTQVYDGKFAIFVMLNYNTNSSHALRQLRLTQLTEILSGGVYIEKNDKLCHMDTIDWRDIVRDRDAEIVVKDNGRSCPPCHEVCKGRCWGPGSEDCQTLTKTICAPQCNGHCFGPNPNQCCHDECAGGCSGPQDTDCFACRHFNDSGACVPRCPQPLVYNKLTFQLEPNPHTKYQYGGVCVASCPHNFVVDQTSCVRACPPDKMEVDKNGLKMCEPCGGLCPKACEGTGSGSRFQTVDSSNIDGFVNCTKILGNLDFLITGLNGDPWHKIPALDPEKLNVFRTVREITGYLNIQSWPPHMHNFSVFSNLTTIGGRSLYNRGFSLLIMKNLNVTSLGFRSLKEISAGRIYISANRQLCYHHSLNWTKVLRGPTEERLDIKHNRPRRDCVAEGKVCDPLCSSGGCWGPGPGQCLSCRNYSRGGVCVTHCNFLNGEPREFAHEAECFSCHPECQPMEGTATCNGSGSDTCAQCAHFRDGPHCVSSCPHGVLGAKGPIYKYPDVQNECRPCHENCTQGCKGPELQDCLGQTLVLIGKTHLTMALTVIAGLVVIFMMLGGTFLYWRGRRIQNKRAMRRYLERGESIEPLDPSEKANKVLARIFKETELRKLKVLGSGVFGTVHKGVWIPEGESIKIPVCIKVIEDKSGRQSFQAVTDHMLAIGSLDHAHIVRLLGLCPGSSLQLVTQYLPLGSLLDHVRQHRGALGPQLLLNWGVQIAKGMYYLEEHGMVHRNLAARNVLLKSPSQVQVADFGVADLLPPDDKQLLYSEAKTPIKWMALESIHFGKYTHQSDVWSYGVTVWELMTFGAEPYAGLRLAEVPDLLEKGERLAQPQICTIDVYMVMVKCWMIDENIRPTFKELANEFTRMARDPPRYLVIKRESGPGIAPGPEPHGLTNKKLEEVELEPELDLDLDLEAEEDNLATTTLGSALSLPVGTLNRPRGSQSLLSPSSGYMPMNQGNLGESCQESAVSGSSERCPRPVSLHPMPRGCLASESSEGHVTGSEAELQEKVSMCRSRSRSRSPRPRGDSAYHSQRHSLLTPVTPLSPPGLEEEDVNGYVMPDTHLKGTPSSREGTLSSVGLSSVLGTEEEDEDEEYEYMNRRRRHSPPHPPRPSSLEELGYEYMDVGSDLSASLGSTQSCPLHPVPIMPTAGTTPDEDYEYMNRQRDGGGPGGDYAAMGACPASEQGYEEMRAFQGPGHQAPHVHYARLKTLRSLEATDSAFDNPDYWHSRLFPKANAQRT
T2 sequence (Q06187 whole entry): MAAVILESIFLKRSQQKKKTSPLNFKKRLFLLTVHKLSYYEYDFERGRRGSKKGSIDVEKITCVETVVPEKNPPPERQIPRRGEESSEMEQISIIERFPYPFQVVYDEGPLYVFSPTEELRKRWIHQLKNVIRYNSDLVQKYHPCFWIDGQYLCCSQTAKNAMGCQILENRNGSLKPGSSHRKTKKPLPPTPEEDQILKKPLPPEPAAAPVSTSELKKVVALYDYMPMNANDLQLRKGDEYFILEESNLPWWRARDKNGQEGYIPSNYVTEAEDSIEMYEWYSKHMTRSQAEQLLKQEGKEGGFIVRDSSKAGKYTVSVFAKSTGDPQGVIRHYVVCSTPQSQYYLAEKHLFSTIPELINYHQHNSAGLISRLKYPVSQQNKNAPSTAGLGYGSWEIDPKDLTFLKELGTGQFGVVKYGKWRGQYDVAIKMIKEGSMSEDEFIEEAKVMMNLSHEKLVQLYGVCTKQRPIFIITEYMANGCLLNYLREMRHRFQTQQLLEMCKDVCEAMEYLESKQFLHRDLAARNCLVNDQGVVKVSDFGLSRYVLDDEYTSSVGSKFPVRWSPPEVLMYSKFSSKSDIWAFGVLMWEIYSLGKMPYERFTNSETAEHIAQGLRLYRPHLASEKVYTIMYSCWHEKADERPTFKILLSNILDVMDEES

With `Cc1ncsc1-c1ccc(CNC(=O)[C@@H]2C[C@@H](O)CN2C(=O)[C@@H](NC(=O)COCCOCCOCCOCCCCCCN2CCC(n3nc(-c4ccc(Oc5ccccc5)cc4)c4c(N)ncnc43)CC2)C(C)(C)C)cc1` [Compound 115, (2S,4R)-1-((S)-22-(4-(4-amino-3-(4-phenoxyphenyl)-1H-pyrazolo[3,4-d]pyrimidin-1-yl)piperidin-1-yl)-2,2-dimethyl-5-oxo-7,10,13,16-tetraoxa-4-azadocosanecarbonyl)-4-hydroxy-N-(4-(4-methylthiazol-5-yl)benzyl)pyrrolidine-2-carboxamide], at HER3, the “HER3 Degradation” value is reported as “No”.
`Cc1ncsc1-c1ccc(CNC(=O)[C@@H]2C[C@@H](O)CN2C(=O)[C@@H](NC(=O)COCCOCCOCCOCCN2CCN(C3CCC(n4nc(-c5ccc(Oc6ccccc6)cc5)c5c(N)ncnc54)CC3)CC2)C(C)(C)C)cc1` (stereo partly drawn) [Compound 114, (2S,4R)-1-((S)-17-(4-(4-(4-amino-3-(4-phenoxyphenyl)-1H-pyrazolo[3,4-d]pyrimidin-1-yl)cyclohexyl)piperazin-1-yl)-2-tert-butyl-4-oxo-6,9,12,15-tetraoxa-3-azaheptadecane)-4-hydroxy-N-(4-(4-methylthiazol-5-yl)benzyl)pyrrolidine-2-carboxamide]: the “HER3 Degradation” value on HER3 is “No”.
As for `Nc1ncnc2c1c(-c1ccc(Oc3ccccc3)cc1)nn2C1CCN(CCOCCOCCOc2ccc3c(c2)CN(C2CCC(=O)NC2=O)C3=O)CC1` (centres unmarked) [COMPOUND 135, 3-(5-(2-(2-(2-(4-(4-amino-3-(4-phenoxyphenyl)-1H-pyrazolo[3,4-d]pyrimidin-1-yl)piperidin-1-yl)ethoxy)ethoxy)ethoxy)-1-oxoisoindolin-2-yl)piperidine-2,6-dione], on BTK (NAMALWA cells), the “degradation potency/profile compared with COMPOUND 102” value is “similarly potent to COMPOUND 102”. The Dmax at BTK (NAMALWA cells, read-out: Dmax) was > 99%. The same molecule came in with a DC50 at BTK (Table 5, NAMALWA cells) of 8 nM. Also, on BTK (Table 6, in NAMALWA cells line), the half-maximal degradation concentration (DC50) is 8 nM and the maximal degradation (Dmax) is recorded as >99%. Further, in data set [1], the “pharmacokinetic profile relative to COMPOUND 102” value is “superior pharmacokinetic profiles relative to COMPOUND 102”, the “Clearance (Cl)” value turned out to be 40.8 mL/min/kg, the “Half Life (t1/2)” value is given as 1.64 h and the highest concentration (Cmax) amounted to 2100 ng/mL. The AUC(0-t) in data set [1] stood at 405 ng·h/mL.
Consider `Nc1ncnc2c1c(-c1ccc(Oc3ccccc3)cc1)nn2C1CCN(CCOCCOCC(=O)Nc2cccc3c2C(=O)N(C2CCC(=O)NC2=O)C3=O)CC1` (centres unmarked) [Compound 101, 2-(2-(2-(4-(4-amino-3-(4-phenoxyphenyl)-1H-pyrazolo[3,4-d]pyrimidin-1-yl)piperidin-1-yl)ethoxy)ethoxy)-N-(2-(2,6-dioxopiperidin-3-yl)-1,3-dioxoisoindolin-4-yl)acetamide], for which, on BTK (NAMALWA cells), the “ability to degrade BTK” value was “inability to degrade BTK”.
With `Cc1ncsc1-c1ccc(CNC(=O)[C@@H]2C[C@@H](O)CN2C(=O)[C@@H](NC(=O)COCCOCCOCCOCCN2CCC(n3nc(-c4ccc(Oc5ccccc5)cc4)c4c(N)ncnc43)CC2)C(C)(C)C)cc1` [Compound 109, (2S,4R)-1-((S)-17-(4-(4-amino-3-(4-phenoxyphenyl)-1H-pyrazolo[3,4-d]pyrimidin-1-yl)piperidin-1-yl)-2-tert-butyl-4-oxo-6,9,12,15-tetraoxa-3-azaheptadecane)-4-hydroxy-N-(4-(4-methylthiazol-5-yl)benzyl)pyrrolidine-2-carboxamide], the “HER3 Degradation” value at HER3 is recorded as “No”.
On to `Cc1ncsc1-c1ccc(CNC(=O)[C@@H]2C[C@@H](O)CN2C(=O)[C@@H](NC(=O)COCCOCCN2CCC(n3nc(-c4ccc(Oc5ccccc5)cc4)c4c(N)ncnc43)CC2)C(C)(C)C)cc1` [Compound 129, (2S,4R)-1-((S)-2-(2-(2-(2-(4-(4-amino-3-(4-phenoxyphenyl)-1H-pyrazolo[3,4-d]pyrimidin-1-yl)piperidin-1-yl)ethoxy)ethoxy)acetamido)-3,3-dimethylbutanoyl)-4-hydroxy-N-(4-(4-methylthiazol-5-yl)benzyl)pyrrolidine-2-carboxamide], for which the Dmax at BTK (NAMALWA cells, read-out: Dmax) is < 50%; on BTK (Table 6, in NAMALWA cells line) it was <50%. In addition, the DC50 at BTK (Table 5, NAMALWA cells) was > 1000 nM; on BTK (Table 6, in NAMALWA cells line), > 1000 nM. The molecule further gave a Max on BTK (Table 5, at 2.5 μM) of 49%.
With `Nc1ncnc2c1c(-c1ccc(Oc3ccccc3)cc1)nn2C1CCN(CCCCOCCCCOCC(=O)Nc2ccc3c(c2)C(=O)N(C2CCC(=O)NC2=O)C3=O)CC1` (centres unmarked) [Compound 105, 2-[4-[4-[4-[4-amino-3-(4-phenoxyphenyl)pyrazolo[3,4-d]pyrimidin-1-yl]-1-piperidyl]butoxy]butoxy]-N-[2-(2,6-dioxo-3-piperidyl)-1,3-dioxo-isoindolin-5-yl]acetamide], the “HER3 Degradation” value on HER3 was “No”.
Consider `Nc1ncnc2c1c(-c1ccc(Oc3ccccc3)cc1)nn2C1CCN(CCOCC(=O)Nc2cccc3c2C(=O)N(C2CCC(=O)NC2=O)C3=O)CC1` (centres unmarked) [Compound 100, 2-(2-(4-(4-amino-3-(4-phenoxyphenyl)-1H-pyrazolo[3,4-d]pyrimidin-1-yl)piperidin-1-yl)ethoxy)-N-(2-(2,6-dioxopiperidin-3-yl)-1,3-dioxoisoindolin-4-yl)acetamide], for which the “ability to degrade BTK” value on BTK (NAMALWA cells) is given as “inability to degrade BTK”.
Turning to `CN1C(=O)CCC(N2C(=O)c3ccc(NC(=O)COCCOCCN4CCC(n5nc(-c6ccc(Oc7ccccc7)cc6)c6c(N)ncnc65)CC4)cc3C2=O)C1=O` (centres unmarked) [Compound 130, 2-(2-(2-(4-(4-amino-3-(4-phenoxyphenyl)-1H-pyrazolo[3,4-d]pyrimidin-1-yl)piperidin-1-yl)ethoxy)ethoxy)-N-(2-(1-methyl-2,6-dioxopiperidin-3-yl)-1,3-dioxoisoindolin-5-yl)acetamide], the “ability to degrade BTK” value on BTK (NAMALWA cells) was “neither ibrutinib nor Compound 130 were able to induce degradation of BTK”.
Turning to `Nc1ncnc2c1c(-c1ccc(Oc3ccccc3)cc1)nn2C1CCN(CCCCCCOCCCCCCOCC(=O)Nc2cccc3c2C(=O)N(C2CCC(=O)NC2=O)C3=O)CC1` (centres unmarked) [Compound 107, 2-(6-(6-(4-(4-amino-3-(4-phenoxyphenyl)-1H-pyrazolo[3,4-d]pyrimidin-1-yl)piperidin-1-yl)hexyloxy)hexyloxy)-N-(2-(2,6-dioxopiperidin-3-yl)-1,3-dioxoisoindolin-4-yl)acetamide], at HER3, the “HER3 Degradation” value is “No”.
Take `Nc1ncnc2c1c(-c1ccc(Oc3ccccc3)cc1)nn2C1CCN(CCOCCOCCOc2ccc3c(c2)C(=O)N(C2CCC(=O)NC2=O)C3=O)CC1` (centres unmarked) [COMPOUND 131, 5-(2-(2-(2-(4-(4-amino-3-(4-phenoxyphenyl)-1H-pyrazolo[3,4-d]pyrimidin-1-yl)piperidin-1-yl)ethoxy)ethoxy)ethoxy)-2-(2,6-dioxopiperidin-3-yl)isoindoline-1,3-dione]: the “degradation potency/profile compared with COMPOUND 102” value on BTK (NAMALWA cells) is given as “similarly potent degradation profile as COMPOUND 102”. In addition, it took 11 nM to reach half-maximal degradation at BTK (Table 5, NAMALWA cells) (DC50). The molecule further displayed a DC50 at BTK (Table 6, in NAMALWA cells line) of 11 nM. Besides, at BTK (Table 6, in NAMALWA cells line, read-out: Dmax), the greatest degradation seen (Dmax) is > 99%. Moreover, in data set [1], the “pharmacokinetic profile relative to COMPOUND 102” value is listed as “superior pharmacokinetic profiles relative to COMPOUND 102”, the “Clearance (Cl)” value was 102 mL/min/kg, the “Half Life (t1/2)” value was found to be 1.62 h and the Cmax was 831 ng/mL. Besides, the AUC(0-t) in data set [1] was found to be 166 ng·h/mL.
For `Cc1ncsc1-c1ccc(CNC(=O)[C@@H]2C[C@@H](O)CN2C(=O)[C@H](C(C)C)N2Cc3ccccc3C2=O)c(OCCCOCCC(=O)N2CCC(n3nc(-c4ccc(Oc5ccccc5)cc4)c4c(N)ncnc43)CC2)c1` [Compound 128, (2S,4R)—N-(2-(3-(3-(4-(4-amino-3-(4-phenoxyphenyl)-1H-pyrazolo[3,4-d]pyrimidin-1-yl)piperidin-1-yl)-3-oxopropoxy)propoxy)-4-(4-methylthiazol-5-yl)benzyl)-4-hydroxy-1-((S)-3-methyl-2-(1-oxoisoindolin-2-yl)butanoyl)pyrrolidine-2-carboxamide], the maximal degradation (Dmax) is < 50% on BTK (NAMALWA cells, read-out: Dmax) and <50% at BTK (Table 6, in NAMALWA cells line). The 50% degradation concentration (DC50) on BTK (Table 6, in NAMALWA cells line) is > 1000 nM.
On to `Cc1ncsc1-c1ccc(CNC(=O)[C@@H]2C[C@@H](O)CN2C(=O)[C@H](C(C)C)N2Cc3ccccc3C2=O)c(OCCCCOCCCCN2CCC(n3nc(-c4ccc(Oc5ccccc5)cc4)c4c(N)ncnc43)CC2)c1` [Compound 127, (2S,4R)—N-(2-(4-(4-(4-(4-amino-3-(4-phenoxyphenyl)-1H-pyrazolo[3,4-d]pyrimidin-1-yl)piperidin-1-yl)butoxy)butoxy)-4-(4-methylthiazol-5-yl)benzyl)-4-hydroxy-1-((S)-3-methyl-2-(1-oxoisoindolin-2-yl)butanoyl)pyrrolidine-2-carboxamide], for which the Dmax at BTK (NAMALWA cells, read-out: Dmax) was < 50%; at BTK (Table 6, in NAMALWA cells line), <50%. Further, the half-maximal degradation concentration (DC50) at BTK (Table 5, NAMALWA cells) is > 1000 nM; at BTK (Table 6, in NAMALWA cells line), > 1000 nM.
As to `Cc1ncsc1-c1ccc(CNC(=O)[C@@H]2C[C@@H](O)CN2C(=O)[C@@H](NC(=O)COCCOCCOCCOCCCCN2CCC(n3nc(-c4ccc(Oc5ccccc5)cc4)c4c(N)ncnc43)CC2)C(C)(C)C)cc1` [Compound 113, (2S,4R)-1-((S)-19-(4-(4-amino-3-(4-phenoxyphenyl)-1H-pyrazolo[3,4-d]pyrimidin-1-yl)piperidin-1-yl)-2-tert-butyl-4-oxo-6,9,12,15-tetraoxa-3-azanonadecane)-4-hydroxy-N-(4-(4-methylthiazol-5-yl)benzyl)pyrrolidine-2-carboxamide], at HER3, the “HER3 Degradation” value is recorded as “No”.
`Nc1ncnc2c1c(-c1ccc(Oc3ccccc3)cc1)nn2C1CCN(CCCOCCCOCCC(=O)Nc2cccc3c2C(=O)N(C2CCC(=O)NC2=O)C3=O)CC1` (centres unmarked) [Compound 103, 3-(3-(3-(4-(4-amino-3-(4-phenoxyphenyl)-1H-pyrazolo[3,4-d]pyrimidin-1-yl)piperidin-1-yl)propoxy)propoxy)-N-(2-(2,6-dioxopiperidin-3-yl)-1,3-dioxoisoindolin-4-yl)propanamide]: the “HER3 Degradation” value on HER3 was “No”.
